Source: patent US20050208146A1, “Novel dosage and administration method for oral camptosar” (Pfizer Inc, priority 2003, published 2005)
Where “and” joins values, the source holds several entries; their conditions need not be identical. Equal entries are not always repeated. Entries after “also recorded” stand apart in the source; their conditions may differ.

How the values were obtained:
[1] = Comparison of exposure over 6-week period, oral vs IV irinotecan
[2] = Pharmacokinetics and absolute bioavailability at MTD, IV/oral cross-over in patients; conditions: for AUC(0-inf): 60 mg/m2, AUC0-inf; for Cmax: 60 mg/m2, Cmax
Protocol: (§1) The protocol had two stages, Stage A directed to dose escalation and Stage B directed to pharmacokinetics and bioavailability measurement. Patients were treated as in Table 3. […] MTD is defined as the dose level below which 2/3 or preferably 2/6 patients experience DLT.
(§2) In addition, evidence of antitumor activity can be evaluated.

[3] = Dose escalation to MTD, DLT and grade 3/4 toxicities of oral irinotecan semi-solid matrix capsules in patients with solid tumors; type: in vivo, human; conditions: for DLT (kind and grade) / Pts with DLT: first cycle
Protocol: Patients were treated as in Table 3. […]
Oral irinotecan can be formulated as follows.
The patients received starting doses of 50 (n=7), 60 (n=32), or 70 (n=4) mg/m^2/d. […] See also Tables 6 and 7.

[4] = test system: solid tumors; experiment: Best overall tumor response in patients treated with oral irinotecan; type: in vivo, human; conditions: oral irinotecan daily x5 q 3 weeks
Protocol: as §1, §2

[5] = clinical; conditions: human
[6] = IV Irinotecan, weekly x 4 q 6 weeks x 1 cycle, N=99
[7] = plasma, irinotecan 60 mg/m^2 IV, N=14
[8] = plasma, irinotecan 60 mg/m^2 PO, N=14
[9] = All Cycles, 60 mg/m^2/day, N=32

Structure (SMILES): CCc1c2c(nc3ccc(O)cc13)-c1cc3c(c(=O)n1C2)COC(=O)[C@]3(O)CC [SN-38, 7-ethyl-10-hydroxycamptothecin]
- AUC0-inf, exposure over 6-week period [1, 6]: 1,068 ng h/ml
- Cmax [1, 6]: 28 ng/mL
- Cmax ([1]; Oral Irinotecan, daily x 5 q 3 weeks x 2 cycles, N=14): 7.2 ng/mL
- AUC0-inf, mean ± SD ([2]; irinotecan 60 mg/m^2 IV, N=14): 167 ± 77.8 ng·h/mL
- AUC0-inf, median ([2]; irinotecan 60 mg/m^2 IV, N=14): 169 ng·h/mL
- AUC0-inf, range ([2]; irinotecan 60 mg/m^2 IV, N=14): 55.1 to 358 ng·h/mL
- t1/2, mean ± SD ([2]; irinotecan 60 mg/m^2 IV, N=14): 22.95 ± 19.41 h
- t1/2, median ([2]; irinotecan 60 mg/m^2 IV, N=14): 19.31 h
- t1/2, range ([2]; irinotecan 60 mg/m^2 IV, N=14): 8.63 to 94.9 h
- tmax, median ([2]; irinotecan 60 mg/m^2 IV, N=14): 0.5 h
- tmax, range ([2]; irinotecan 60 mg/m^2 IV, N=14): 0 to 2.0 h
- tmax, mean ± SD ([2]; irinotecan 60 mg/m^2 IV, N=14, measured from start of 1.5-h infusion): 2.18 ± 1.99^2 h
- PO/IV SN-38 AUC Ratio, Mean ± SD ([2]; irinotecan 60 mg/m^2 PO vs IV): 0.504±0.195
- PO/IV SN-38 AUC Ratio, Median ([2]; irinotecan 60 mg/m^2 PO vs IV): 0.447
- PO/IV SN-38 AUC Ratio, range ([2]; irinotecan 60 mg/m^2 PO vs IV): 0.257-0.945
- AUC0-inf, mean ± SD ([2]; irinotecan 60 mg/m^2 PO, N=14): 84.1 ± 54.7 ng·h/mL
- AUC0-inf, median ([2]; irinotecan 60 mg/m^2 PO, N=14): 70.7 ng·h/mL
- AUC0-inf, range ([2]; irinotecan 60 mg/m^2 PO, N=14): 22.8 to 223.6 ng·h/mL
- t1/2, mean ± SD ([2]; irinotecan 60 mg/m^2 PO, N=14): 14.2 ± 5.87 h
- t1/2, median ([2]; irinotecan 60 mg/m^2 PO, N=14): 13.4 h
- t1/2, range ([2]; irinotecan 60 mg/m^2 PO, N=14): 4.7 to 25.7 h
- tmax, mean ± SD ([2]; irinotecan 60 mg/m^2 PO, N=14): 2.97 ± 2.21 h
- tmax, median ([2]; irinotecan 60 mg/m^2 PO, N=14): 2 h
- tmax, range ([2]; irinotecan 60 mg/m^2 PO, N=14): 1.0 to 10.0 h
- AUC of SN-38 following oral irinotecan as % of the value from an equivalent IV dose (mean±SD) ([2]; oral vs equivalent IV dose of irinotecan): 50±20%
- Cmax, mean ± SD [2, 7]: 15.94 ± 7.83 ng/mL
- Cmax, median [2, 7]: 13.8 ng/mL
- Cmax, range [2, 7]: 7.26 to 36.9 ng/mL
- Cmax, mean ± SD [2, 8]: 7.17 ± 3.90 ng/mL
- Cmax, median [2, 8]: 3.91 ng/mL
- Cmax, range [2, 8]: 1.31 to 14.8 ng/mL

Structure (SMILES): CCc1c2c(nc3ccc(OC(=O)N4CCC(N5CCCCC5)CC4)cc13)-c1cc3c(c(=O)n1C2)COC(=O)[C@]3(O)CC [irinotecan, 7-ethyl-10-[4-(1-piperidino)-1-piperidino]-carbonyloxycamptothecin]
- Grade 3 and 4 Diarrhea ([3]; All Cycles, 50 mg/m^2/day, N=7): 14%
- Grade 3 and 4 Nausea ([3]; All Cycles, 50 mg/m^2/day, N=7): 14%
- Grade 3 and 4 Diarrhea [3, 9]: 16%
- Grade 3 and 4 Nausea [3, 9]: 9%
- Grade 3 and 4 Neutropenia [3, 9]: 9%
- Grade 3 and 4 Neutropenic Fever [3, 9]: 3%
- Grade 3 and 4 Vomiting [3, 9]: 12%
- Grade 3 and 4 Diarrhea ([3]; All Cycles, 70 mg/m^2/day, N=4): 50%
- Grade 3 and 4 Nausea ([3]; All Cycles, 70 mg/m^2/day, N=4): 3%
- Grade 3 and 4 Neutropenia ([3]; All Cycles, 70 mg/m^2/day, N=4): 25%
- Grade 3 and 4 Neutropenic Fever ([3]; All Cycles, 70 mg/m^2/day, N=4): 25%
- Grade 3 and 4 Vomiting ([3]; All Cycles, 70 mg/m^2/day, N=4): 3%
- Grade 3 and 4 Diarrhea ([3]; Cycle 1, 50 mg/m^2/day, N=7): 14%
- Grade 3 and 4 Nausea ([3]; Cycle 1, 50 mg/m^2/day, N=7): 14%
- Grade 3 and 4 Diarrhea ([3]; Cycle 1, 60 mg/m^2/day, N=32): 13%
- Grade 3 and 4 Nausea ([3]; Cycle 1, 60 mg/m^2/day, N=32): 6%
- Grade 3 and 4 Neutropenia ([3]; Cycle 1, 60 mg/m^2/day, N=32): 3%
- Grade 3 and 4 Vomiting ([3]; Cycle 1, 60 mg/m^2/day, N=32): 9%
- Grade 3 and 4 Diarrhea ([3]; Cycle 1, 70 mg/m^2/day, N=4): 50%
- Grade 3 and 4 Neutropenia ([3]; Cycle 1, 70 mg/m^2/day, N=4): 25%
- Grade 3 and 4 Neutropenic Fever ([3]; Cycle 1, 70 mg/m^2/day, N=4): 25%
- recommended phase 11 dose ([3]; SSM oral irinotecan, for 5 days every 3 wks): 60 mg/m^2/daily
- DLT (kind and grade) ([3]; Stage A, 50 mg/m^2/day oral): G3 diarrhea, G3 nausea, G3 dehydration; also recorded: Gr. 3 Nausea; also recorded: Gr. 3 Diarrhea; also recorded: Gr. 3 Dehydration
- Pts with DLT ([3]; Stage A, 50 mg/m^2/day oral, 7 evaluable): 1/7 and 1
- DLT (kind and grade) ([3]; Stage A, 60 mg/m^2/day oral): None
- Pts with DLT ([3]; Stage A, 60 mg/m^2/day oral, 8 evaluable): 0/8 and 0
- DLT (kind and grade) ([3]; Stage A, 70 mg/m^2/day oral): G3 diarrhea, G4 ANC [absolute neutrophil counts]; G4 diarrhea, fever, dehydration, fatigue; also recorded: Pt 1: gr. 3 Diarrhea,; also recorded: Pt 2: gr. 4 Diarrhea,; also recorded: gr. 4 Dehydration
- Pts with DLT ([3]; Stage A, 70 mg/m^2/day oral, 4 evaluable): 2/4 and 2
- DLT (kind and grade) ([3]; Stage B, 60 mg/m^2/day oral): Pt 1: Gr. 3 Diarrhea; also recorded: Pt 2: Gr. 3 Dehydration; also recorded: Pt 7: Gr. 3 Diarrhea
- Pts with DLT ([3]; Stage B, 60 mg/m^2/day oral, 24 evaluable): 7
- MTD ([3]; oral, encapsulated semi-solid matrix, daily x5 q 3 weeks): 60 mg/m^2/day
- best overall tumor response: partial responses ([4]; esophageal and small cell lung cancer): Two confirmed partial responses
- best overall tumor response: stable disease cases ([4]; variety of tumor types): thirteen stable disease cases
- bioavailability ([2]; human, in vivo, Absolute bioavailabiity of irinotecan, Mean ± SD): 24 ± 23%
- bioavailability ([2]; human, in vivo, Absolute bioavailabiity of irinotecan, Median): 15.4%
- bioavailability ([2]; human, in vivo, Absolute bioavailabiity of irinotecan, range): 7.1 to 96%
- Tmax ([2]; human, in vivo, iv, 60 mg/m2): End of 1.5-h
- AUC(0-inf) ([2]; human, in vivo, iv, mean ± SD): 3020 ± 830 ng·h/mL
- AUC(0-inf) ([2]; human, in vivo, iv, median): 2610 ng·h/mL
- AUC(0-inf) ([2]; human, in vivo, iv, range): 1720 to 4790 ng·h/mL
- Cmax ([2]; human, in vivo, iv, mean ± SD): 627 ± 142 ng/mL
- Cmax ([2]; human, in vivo, iv, median): 593 ng/mL
- Cmax ([2]; human, in vivo, iv, range): 416 to 897 ng/mL
- tmax, mean ± SD ([2]; human, in vivo, po, 60 mg/m2): 3.15 ± 2.00 h
- AUC(0-inf) ([2]; human, in vivo, po, mean ± SD): 732 ± 665 ng·h/mL
- AUC(0-inf) ([2]; human, in vivo, po, median): 619 ng·h/mL
- AUC(0-inf) ([2]; human, in vivo, po, range): 167 to 2500 ng·h/mL
- Cmax ([2]; human, in vivo, po, mean ± SD): 73.1 ± 67.6 ng/mL
- Cmax ([2]; human, in vivo, po, median, plasma, irinotecan 60 mg/m^2 PO, N=14): 60.1 ng/mL
- Cmax ([2]; human, in vivo, po, range, plasma, irinotecan 60 mg/m^2 PO, N=14): 9.49 to 274 ng/mL
- Tmax ([2]; human, in vivo, po, 60 mg/m2, tmax, mean ± SD): 3 ± 2.2 h
- Tmax ([2]; human, in vivo, po, 60 mg/m2, tmax, range): 1 to 10 h
- bioavailability ([2]; human, in vivo, po, absolute bioavailability (mean±SD)): 25 ± 23%
- AUC(0-inf) ([5]; in vivo, iv): 42000 ng·h/mL
- Cmax ([5]; in vivo, iv): 1500 ng/mL
- AUC(0-inf) ([5]; plasma, po, 60 mg/m^2/daily): 7320 ng·h/mL
- Cmax ([5]; plasma, po, 60 mg/m^2/daily): 73.1 ng/mL
